Measured values: patent US20200148803A1, “POLYMERIZABLE MULTIFUNCTIONAL ANTIMICROBIAL QUATERNARY AMMONIUM MONOMERS, METHODS OF SYNTHESIS, AND USES THEREOF” (ADA Foundation, priority 2018, published 2020)

Key:
[1] = Sessile drop water contact angle (CA) on resin pellets; format: physicochemical
Description: (§1) Experimental resin (UPE) was formulated from the commercially available monomers urethane dimethacrylate (UDMA, 50.91% w/w), polyethylene glycol extended urethane dimethacrylate (PEG-U, 18.18% w/w), and ethyl 2-(hydroxymethyl)acrylate (EHMA, 30.91% w/w). A conventional visible light initiator system comprised of camphorquinone (0.2% w/w) and ethyl-4-N,N-dimethylamino benzoate (4EDMAB, 0.8% w/w) was utilized. […] Copolymer specimens (beams) were prepared by depositing UPE (UPE resin control) and AM-UPE resins into glass molds (2 mm×2 mm×25 mm) and photopolymerizing them with a dental curing light (Triad 2000, Dentsply, Charlotte, N.C., USA) for 2 minutes from two sides. Copolymer specimens (pellets) were prepared by depositing UPE and AM-UPE resins into a stainless-steel mold (1 mm×16 mm), sandwiched between two sheets of Mylar film and two glass slides and photopolymerized in the same manner as the beam samples. Degree of vinyl conversion (DVC) of UPE and AM-UPE resins was determined utilizing beam samples by collecting the near infra-red (NIR) spectra (Nexus 670, ThermoFisher, Madison, Wis., USA) before and 24 h after polymerization and calculating the reduction in absorption band at 6165 cm^−1 corresponding to the vinyl (C═C—H) overtone signal. By maintaining a constant specimen thickness, a need for an invariant internal standard was eliminated. The DVC was calculated as: […]
(§2) where Area(polymer) and Area(monomer) correspond to the areas under 6165 cm^−1 peaks after and before the polymerization, respectively. After DVC analysis, flexural strength (FS) and elastic modulus (E) of beam specimen were determined employing the Universal Testing Machine (Instron 5500R, Instron Corp., Canton, Mass., USA). The load was applied (at cross-head speed of 1 mm/min) to the center of a specimen positioned on a test device with supports 20 mm apart. The FS and E of the specimens (three replicates/experimental group) was calculated as instructed in the ISO4049:2009 document. Changes in hydrophilicity/hydrophobicity of UPE resins due to the introduction of AM monomers were assessed on pellet specimen by sessile drop contact angle (CA) measurements (drop shape analyzer DSA100, Krüss GmbH, Hamburg, Germany). Following the deposition of 4 μL water droplets on the resin pellets, the pellets were imaged after 1 min resting time with a camera at the points of intersection (three-phase contact points) between the drop contour and the projection of the surface (baseline). The CA water values were calculated employing the Krüss Advance software. At least four repetitive measurements were performed in each group. Analysis of variance (ANOVA) and Newman-Keuls multiple paired comparisons (at 95% confidence level) were used to analyze the experimental data as a function of resin composition and establish a statistical significance of differences between the experimental groups (WINKS 7.0.9, TexaSoft, Cedar Hills, Tex., USA).

[2] = Degree of vinyl conversion (DVC) by near infra-red spectra of copolymer beams; format: physicochemical
Description: as §1, §2

[3] = test system: CCL1 cells; test: Cellular metabolic activity (CellTiter AQueous One Solution Reagent), CCL1 cells; format: cell-based; conditions: two-fold serial dilutions, 24 h and 72 h
[4] = test system: human gingival fibroblasts (HGF); test: Cellular metabolic activity (CellTiter AQueous One Solution Reagent), HGF cells; format: cell-based; conditions: two-fold serial dilutions, 24 h and 72 h
Description: (§3) Immortalized human gingival fibroblasts (HGF) were purchased from Applied Biological Materials, Inc. (Richmond, British Columbia, Canada). […] For experiments, cells were obtained from a subconfluent stock culture.
(§4) Direct contact cytotoxicity testing was conducted as previously described^7, 8. Briefly, cells were exposed to two-fold serial dilutions of AMadh series monomers or AMsil series monomers to approximate the maximum possible exposure, (Table 9). Table 9 illustrates biocompatibility testing using maximum possible monomer exposure (mmol/L), assuming 7% mass fraction in the restorative with a maximum of 2% leaching. To account for multiplicity and variable size of restorations, a two- and four-fold greater dilution was also included in the testing. After 24 and 72 h, cells were assessed for cell viability using the LIVE/DEAD® Viability/Cytotoxicity kit (Life Technologies, Corp., Grand Island, N.Y.). Cellular metabolic activity was subsequently assessed using the CellTiter® AQueous One Solution Reagent (Promega, Corp., Madison, Wis.). Negative controls were without the novel monomer and/or cells. Mean+standard error was obtained from five independent replicates tested in triplicate.

[5] = test system: human gingival fibroblasts (HGF); test: Direct contact cytotoxicity, LIVE/DEAD viability, HGF cells; format: cell-based
Description: as §3, §4

[6] = test system: mouse subcutaneous connective tissue fibroblasts (NCTC clone 929, CCL1); test: Direct contact cytotoxicity, LIVE/DEAD viability, CCL1 cells; format: cell-based
[7] = two-fold serial dilutions, 24 h and 72 h

SMILES: C=C(C)C(=O)OCC[N+](C)(C)CCC[Si](OC)(OC)OC.[I-] [AMsil1, N-(2-(methacryloyloxy)ethyl)-N,N-dimethyl-3-(trimethoxysilyl)propan-1-aminium iodide]
- CA ([1]; 10 mass % monomer in UPE resin): 46.9±5.9 °
- reduction of CA relative to UPE resin control ([1]; 10 mass % monomer in UPE resin): 23%
- effect on hydrophobic-hydrophilic properties of the copolymer ([1]; 10 mass percent in UPE resin): a shift towards the lower CA values
- effect on hydrophobic-hydrophilic properties of the copolymer ([1]; 20 mass percent in UPE resin): maintained the hydrophobic-hydrophilic balance
- reduction of DVC relative to UPE resin control ([2]; 10 mass percent in UPE resin): approximately 27%
- reduction of DVC relative to UPE resin control ([2]; 20 mass percent in UPE resin): ~17%
- effect of monomer concentration on CCL1 metabolic activity [3]: did not affect
- effect on metabolic activity of HGF cells [4]: did not statistically affect the metabolic activity
- exposure time reduced HGF viability, difference of means ([5]; 24 h vs 72 h, independent of concentration): 19.73
- number of live HGFs ([5]; lower concentrations (≤0.13 mmol/L)): decreased
- effect of monomer concentration on HGF cell viability [5, 7]: exerted a main effect
- dead CCL1 cells ([6]; 0.07 mmol/L, 24 h): 128.0 ± 27.1 % Control
- live CCL1 cells ([6]; 0.07 mmol/L, 24 h): 156.8 ± 21.4 % Control
- dead CCL1 cells ([6]; 0.07 mmol/L, 72 h): 134.0 ± 36.5 % Control
- live CCL1 cells ([6]; 0.07 mmol/L, 72 h): 122.5 ± 5.6 % Control
- dead CCL1 cells ([6]; 0.13 mmol/L, 24 h): 85.1 ± 11.2 % Control
- live CCL1 cells ([6]; 0.13 mmol/L, 24 h): 145.1 ± 14.8 % Control
- dead CCL1 cells ([6]; 0.13 mmol/L, 72 h): 140.3 ± 32.7 % Control
- live CCL1 cells ([6]; 0.13 mmol/L, 72 h): 122.1 ± 8.5 % Control
- dead CCL1 cells ([6]; 0.26 mmol/L, 24 h): 96.8 ± 15.5 % Control
- live CCL1 cells ([6]; 0.26 mmol/L, 24 h): 154.5 ± 25.0 % Control
- live CCL1 cells ([6]; 0.26 mmol/L, 72 h): 108.9 ± 18.6 % Control
- dead CCL1 cells ([6]; 0.52 mmol/L, 24 h): 117.4 ± 27.1 % Control
- live CCL1 cells ([6]; 0.52 mmol/L, 24 h): 147.3 ± 20.3 % Control
- dead CCL1 cells ([6]; 0.52 mmol/L, 72 h): 124.6 ± 22.9 % Control
- live CCL1 cells ([6]; 0.52 mmol/L, 72 h): 122.9 ± 11.1 % Control
- dead CCL1 cells ([6]; 1.04 mmol/L, 24 h): 96.0 ± 16.2 % Control
- live CCL1 cells ([6]; 1.04 mmol/L, 24 h): 157.9 ± 18.8 % Control
- dead CCL1 cells ([6]; 1.04 mmol/L, 72 h): 128.8 ± 20.2 % Control
- live CCL1 cells ([6]; 1.04 mmol/L, 72 h): 142.0 ± 6.5 % Control
- dead CCL1 cells ([6]; 2.09 mmol/L, 24 h): 86.1 ± 11.7 % Control
- live CCL1 cells ([6]; 2.09 mmol/L, 24 h): 152.5 ± 20.3 % Control
- dead CCL1 cells ([6]; 2.09 mmol/L, 72 h): 147.6 ± 38.5 % Control
- live CCL1 cells ([6]; 2.09 mmol/L, 72 h): 136.0 ± 7.2 % Control
- dead CCL1 cells ([6]; 4.17 mmol/L, 24 h): 85.8 ± 13.1 % Control
- live CCL1 cells ([6]; 4.17 mmol/L, 24 h): 161.3 ± 15.2 % Control
- dead CCL1 cells ([6]; 4.17 mmol/L, 72 h): 91.6 ± 13.7 % Control
- live CCL1 cells ([6]; 4.17 mmol/L, 72 h): 132.1 ± 6.7 % Control
- dead CCL1 cells ([6]; 8.34 mmol/L, 24 h): 93.0 ± 15.4 % Control
- live CCL1 cells ([6]; 8.34 mmol/L, 24 h): 149.6 ± 37.4 % Control
- dead CCL1 cells ([6]; 8.34 mmol/L, 72 h): 106.8 ± 7.4 % Control
- live CCL1 cells ([6]; 8.34 mmol/L, 72 h): 110.8 ± 12.3 % Control
- exposure time reduced the number of live CCL1 cells, fold difference of mean ([6]; 24 h vs 72 h): 1.2 fold
- effect of monomer concentration on CCL1 cell viability [6, 7]: did not exert a statistical effect
